According to PubChem BioAssay AID248 (DTP/NCI, 2004):
Toxic doses and inconclusive results are not listed. Rule as the data show it: active = T/C of 150% or more; inactive = T/C below 125%.

Test system: L1210 leukemia ip in BDF1 mice, survival T/C
Assay: NCI In Vivo Anticancer Drug Screen. Data for tumor model L1210 Leukemia (intraperitoneal) in B6D2F1 (BDF1) mice
Details: endpoint: mean survival time, higher = longer survival
How it was run: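 Mice bearing the transplanted tumor received compound or vehicle. Survival of the treated group was divided by that of the vehicle-treated control group to give the ratio.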

[1] = dose: 100.0 mg/kg/injection, schedule: Q04DX002 (ip), vehicle: Klucel (hydroxypropylcellulose) (HPC)
[2] = dose: 200.0 mg/kg/injection, schedule: Q04DX002 (ip), vehicle: Klucel (hydroxypropylcellulose) (HPC)
[3] = dose: 400.0 mg/kg/injection, schedule: Q04DX002 (ip), vehicle: Klucel (hydroxypropylcellulose) (HPC)
[4] = dose: 100.0 mg/kg/injection, schedule: Q01DX001 (ip), vehicle: Klucel (hydroxypropylcellulose) (HPC)
[5] = dose: 200.0 mg/kg/injection, schedule: Q01DX001 (ip), vehicle: Klucel (hydroxypropylcellulose) (HPC)
[6] = dose: 50.0 mg/kg/injection, schedule: Q01DX009 (ip), vehicle: Klucel (hydroxypropylcellulose) (HPC)
[7] = dose: 100.0 mg/kg/injection, schedule: Q01DX009 (ip), vehicle: Klucel (hydroxypropylcellulose) (HPC)
[8] = dose: 200.0 mg/kg/injection, schedule: Q01DX009 (ip), vehicle: Klucel (hydroxypropylcellulose) (HPC)
[9] = dose: 100.0 mg/kg/injection, schedule: Q01DX009 (ip), vehicle: saline with Tween-80
[10] = dose: 200.0 mg/kg/injection, schedule: Q01DX009 (ip), vehicle: saline with Tween-80
[11] = dose: 100.0 mg/kg/injection, schedule: Q01DX009 (ip), vehicle: acetone
[12] = dose: 100.0 mg/kg/injection, schedule: Q04DX003 (ip), vehicle: saline
[13] = dose: 200.0 mg/kg/injection, schedule: Q01DX009 (ip), vehicle: acetone
[14] = dose: 200.0 mg/kg/injection, schedule: Q04DX003 (ip), vehicle: saline
[15] = dose: 400.0 mg/kg/injection, schedule: Q04DX003 (ip), vehicle: saline
[16] = dose: 100.0 mg/kg/injection, schedule: Q04DX003 (ip), vehicle: Klucel (hydroxypropylcellulose) (HPC)
[17] = dose: 200.0 mg/kg/injection, schedule: Q04DX003 (ip), vehicle: Klucel (hydroxypropylcellulose) (HPC)
[18] = dose: 400.0 mg/kg/injection, schedule: Q04DX003 (ip), vehicle: Klucel (hydroxypropylcellulose) (HPC)
[19] = dose: 100.0 mg/kg/injection, schedule: Q01DX001 (ip), vehicle: carboxymethylcellulose (CMC)
[20] = dose: 200.0 mg/kg/injection, schedule: Q01DX001 (ip), vehicle: carboxymethylcellulose (CMC)
[21] = dose: 400.0 mg/kg/injection, schedule: Q01DX009 (ip), vehicle: Klucel (hydroxypropylcellulose) (HPC)

Measured: T/C

CC(C)(C)c1cc(/C=N/NC(=S)Nc2ccccc2)cc(C(C)(C)C)c1O
inactive: [1] 96 % of control | [2] 89 % of control | [3] 92 % of control

N=c1ccc2ccccc2n1O
inactive: dose: 6.25 mg/kg/injection, schedule: Q04DX003 (ip), vehicle: other 97 % of control | dose: 12.5 mg/kg/injection, schedule: Q04DX003 (ip), vehicle: other 95 % of control | dose: 25.0 mg/kg/injection, schedule: Q04DX003 (ip), vehicle: other 100 % of control

NC(=O)N/N=C\C=N/NC(N)=O
inactive: [4] 92 % of control | [5] 92 % of control

CN(Cc1cnc2nc(N)nc(N)c2n1)c1ccccc1
inactive: dose: 20.0 mg/kg/injection, schedule: Q01DX009 (ip), vehicle: saline with Tween-80 97 % of control | dose: 40.0 mg/kg/injection, schedule: Q01DX009 (ip), vehicle: saline with Tween-80 101 % of control | dose: 80.0 mg/kg/injection, schedule: Q01DX009 (ip), vehicle: saline with Tween-80 98 % of control

COc1ccccc1C(C)=O
inactive: [6] 97 % of control | [7] 100 % of control | [8] 87 % of control

O=C(O)c1cccc(C(=O)Oc2ccccc2-c2ccccc2)c1
inactive: dose: 50.0 mg/kg/injection, schedule: Q01DX009 (ip), vehicle: saline with Tween-80 94 % of control | [9] 87 % of control | [10] 94 % of control

O=c1n(-c2ccccc2)c(=O)n2n1C1/C=C\C=C/C2C2CCC21 (stereo not drawn)
inactive: dose: 12.5 mg/kg/injection, schedule: Q01DX009 (ip), vehicle: saline with Tween-80 92 % of control | dose: 12.5 mg/kg/injection, schedule: Q04DX003 (ip), vehicle: saline with Tween-80 100 % of control | dose: 25.0 mg/kg/injection, schedule: Q01DX009 (ip), vehicle: saline with Tween-80 95 % of control | dose: 25.0 mg/kg/injection, schedule: Q04DX003 (ip), vehicle: saline with Tween-80 95 % of control | dose: 50.0 mg/kg/injection, schedule: Q04DX003 (ip), vehicle: saline with Tween-80 87 % of control

OCCN1CCSC1=S
inactive: [9] 87 % of control | [10] 88 % of control

O=S(=O)(c1ccccc1)C1CC1c1ccccc1 (stereo not drawn)
inactive: dose: 50.0 mg/kg/injection, schedule: Q01DX009 (ip), vehicle: acetone 95 % of control | dose: 100.0 mg/kg/injection, schedule: Q01DX001 (ip), vehicle: saline 94 % of control | [11] 93 % of control | [12] 98 % of control | dose: 200.0 mg/kg/injection, schedule: Q01DX001 (ip), vehicle: saline 102 % of control | [13] 97 % of control | [14] 96 % of control | dose: 400.0 mg/kg/injection, schedule: Q01DX001 (ip), vehicle: saline 102 % of control | [15] 98 % of control

Oc1ccc(Nc2ncnc3cc(Cl)ccc23)cc1CN(c1ccccc1)c1ccccc1
inactive: [12] 102 % of control | [14] 89 % of control

CCCNC(=O)OC/C=C\CC(Cl)(Cl)Cl
inactive: [6] 97 % of control | [7] 96 % of control | [16] 87 % of control | [8] 94 % of control | [17] 94 % of control | [18] 86 % of control

CCOc1ccc(N=Cc2cc(Br)ccc2O)cc1
inactive: dose: 100.0 mg/kg/injection, schedule: Q04DX002 (ip), vehicle: saline with Tween-80 96 % of control | dose: 200.0 mg/kg/injection, schedule: Q04DX002 (ip), vehicle: saline with Tween-80 100 % of control | dose: 400.0 mg/kg/injection, schedule: Q04DX002 (ip), vehicle: saline with Tween-80 100 % of control

COc1cccc(OC)c1-c1oc2ccccc2c(=O)c1O
inactive: [11] 94 % of control | [12] 95 % of control | [13] 95 % of control | [14] 94 % of control | dose: 400.0 mg/kg/injection, schedule: Q01DX009 (ip), vehicle: acetone 95 % of control | [15] 94 % of control

CN1CCN(Cc2c(O)ccc3c4c(c(=O)oc23)CCCC4)CC1
inactive: [19] 98 % of control | [20] 93 % of control

CCOC(=O)c1cc(OCC)c2c(ccc3cc(OC)ccc32)n1
inactive: [7] 96 % of control | [8] 94 % of control | [21] 93 % of control

CN(C)Cc1ccc(NC(=O)c2ccc(C(=O)Nc3ccc(CN(C)C)cc3)cc2)cc1
inactive: dose: 15.0 mg/kg/injection, schedule: Q01DX Z (ip), vehicle: carboxymethylcellulose (CMC) 103 % of control | dose: 30.0 mg/kg/injection, schedule: Q01DX Z (ip), vehicle: carboxymethylcellulose (CMC) 106 % of control | dose: 60.0 mg/kg/injection, schedule: Q01DX Z (ip), vehicle: carboxymethylcellulose (CMC) 106 % of control | dose: 120.0 mg/kg/injection, schedule: Q01DX Z (ip), vehicle: carboxymethylcellulose (CMC) 117 % of control

CCCCNS(=O)(=O)c1ccc(N)cc1
inactive: dose: 100.0 mg/kg/injection, schedule: Q01DX009 (ip), vehicle: saline sonified 102 % of control | [16] 98 % of control | dose: 200.0 mg/kg/injection, schedule: Q01DX009 (ip), vehicle: saline sonified 102 % of control | [17] 109 % of control | dose: 400.0 mg/kg/injection, schedule: Q01DX009 (ip), vehicle: saline sonified 98 % of control | [18] 117 % of control

Nc1nnnn1-c1ccccc1
inactive: [1] 102 % of control | [2] 102 % of control | [3] 91 % of control

Cc1ncc(C(C)(O)c2ccc(Cl)cc2)n1Cc1ccccc1 (stereo not drawn)
inactive: [4] 112 % of control | [7] 92 % of control | [16] 92 % of control | [5] 98 % of control | [8] 89 % of control | [17] 88 % of control | dose: 400.0 mg/kg/injection, schedule: Q01DX001 (ip), vehicle: Klucel (hydroxypropylcellulose) (HPC) 118 % of control | [21] 92 % of control | [18] 92 % of control

Cc1cc(Cl)c([N+](=O)[O-])c(P(=O)(O)O)c1
inactive: dose: 75.0 mg/kg/injection, schedule: Q01DX001 (ip), vehicle: saline 90 % of control | dose: 150.0 mg/kg/injection, schedule: Q01DX001 (ip), vehicle: saline 90 % of control | dose: 300.0 mg/kg/injection, schedule: Q01DX001 (ip), vehicle: saline 96 % of control

CC(=O)N(C(C)=O)C1=C(c2ccccc2)C(=O)c2ccccc21
inactive: [7] 98 % of control | [16] 96 % of control | [8] 97 % of control | [17] 105 % of control | [21] 94 % of control | [18] 107 % of control

COc1cccc(OC)c1CCCl
inactive: [12] 95 % of control | [14] 97 % of control | [15] 110 % of control

CN(N=O)c1ccc(C=C2c3ccccc3-c3ccccc32)cc1
inactive: dose: 50.0 mg/kg/injection, schedule: Q01DX001 (ip), vehicle: carboxymethylcellulose (CMC) 102 % of control | [19] 106 % of control | [20] 96 % of control | dose: 400.0 mg/kg/injection, schedule: Q01DX001 (ip), vehicle: carboxymethylcellulose (CMC) 102 % of control
